In patent publication US12049450B2, “Pyridyloxy-carboxylate derivative and preparation method therefor, herbicidal composition, and use” (Qingdao Kingagroot Chemical Compound Co., Ltd., priority 2018, dated 2024):

Tests used:
Format in all cases: in vivo
Abutilon theophrasti = assay: Post-emergence test experiment (greenhouse pot, spray at 2-3 leaf stage); conditions: 1000 g/ha; post-emergence spray at 2-3 leaf stage; assessed after 3 weeks; fresh weight inhibition rate
Procedure, shortened: (§1)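 Activity graded levels 0-5 by fresh-weight inhibition (level 5 above 85%, level 0 below 5%), assessed 3 weeks after treatment. Plants grown in greenhouse pots were sprayed post-emergence at 2-3 leaves using acetone/tween-80 solutions with methyl oleate synergist (1.5 L/ha).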

Cyperus iria = assay: as above; conditions: post-emergence, after 3 weeks, resistant to ALS inhibitor herbicides
Procedure, shortened: as §1

Digitaria sanguinalis = assay: as above; conditions: 1000 g/ha; post-emergence spray at 2-3 leaf stage; assessed after 3 weeks; fresh weight inhibition rate
Procedure, shortened: as §1

Echinochloa crusgalli = assay: as above; conditions: for Activity level (growth inhibition rate) Echinochloa crusgalli: 1000 g/ha, post-emergence spray at 2-3 leaf stage, assessed after 3 weeks, fresh weight inhibition rate; for Echinochloa crusgalli, activity level (growth inhibition rate): post-emergence, after 3 weeks, resistant to ALS inhibitor herbicides
Procedure, shortened: as §1

Galium spurium = assay: as above; conditions: 1000 g/ha; post-emergence spray at 2-3 leaf stage; assessed after 3 weeks; fresh weight inhibition rate
Procedure, shortened: as §1

Indica rice = assay: as above; conditions: post-emergence, after 3 weeks
Procedure, shortened: as §1

Japonica rice = assay: as above; conditions: post-emergence, after 3 weeks
Procedure, shortened: as §1

Monochoria vaginalis [1] = assay: as above; conditions: 1000 g/ha; post-emergence spray at 2-3 leaf stage; assessed after 3 weeks; fresh weight inhibition rate
Procedure, shortened: as §1

rice (japonica rice) = assay: Transplanted rice safety evaluation in rice field soil pot; conditions: 1000 g/ha, 21 days after treatment
Description: (§2) The activity level standard of harmful plants destruction (i. e. growth inhibition rate) is as follows: • Level 5: the growth inhibition rate is greater than 85%; • Level 4: the growth inhibition rate is equal to or greater than 60% and less than 85%; • Level 3: the growth inhibition rate is equal to or greater than 40% and less than 60%; • Level 2: the growth inhibition rate is equal to or greater than 20% and less than 40%; • Level 1: the growth inhibition rate is equal to or greater than 5% and less than 20%; • Level 0: the growth inhibition rate is less than 5%;
(§3) Transplanted rice safety evaluation and weed control effect evaluation in rice field:
In addition, the rice field soil that loaded into the 1/1,000,000 ha pot was leveled to keep water storage at 3-4 cm depth. The 3-leaf stage rice (japonica rice) was transplanted at 3 cm of transplanting depth the next day. The compound of the present invention was treated by the same way after 5 days of transplantation.
(§4) The fertility condition of Monochoria vaginalis 14 days and rice 21 days after the treatment of the compound of the invention with the naked eye.

Monochoria vaginalis [2] = assay: Weed control effect evaluation in rice field soil pot; conditions: paddy pot, 14 days after treatment, resistant to pyrazosulfuron-ethyl and penoxsulam
Description: as §2, §3
Rice field soil was loaded into a 1/1,000,000 ha pot. The seeds of Monochoria vaginalis were sowed and gently covered with soil, then left to stand still in greenhouse in the state of 0.5-1 cm of water storage. It was kept at 3-4 cm of water storage thereafter. The weeds were treated by dripping the WP or SC water diluents prepared according to the common preparation method of the compounds of the present invention with pipette homogeneously to achieve specified effective amount when Monochoria vaginalis reached 0.5 leaf stage.
as §4

Soybean = assay: Spray drift test, application by unmanned gyroplane, soybean field at 10 meters; conditions: 600 g/ha, gyroplane at 1 m, gentle breeze
Procedure: Broadleaf crops are very sensitive to hormonal herbicides, therefore crop injuries are more likely to occur in case of spray drifting. Tests were conducted in gentle breeze for the compounds of the present invention. The formulation of the compounds of the present invention was applied by DJI unmanned gyroplane with application height of 1 m and water volume of 20 kg/ha. The use rate was 600 g/ha. The active ingredient was dissolved by acetone and diluted to aqueous solution of Tween 80. There's a soybean field at 10 meters from the application area and the height of soybean plants were about 15 cm at the application time.

Cc1c(F)nc(OC(C)C(=O)OCc2ccccc2)c(C)c1N (stereo not drawn) [Compound 7]
Activity level (growth inhibition rate) Abutilon theophrasti (Abutilon theophrasti): 5 (Level 5: the growth inhibition rate is greater than 85%)
Cyperus iria, activity level (growth inhibition rate) (Cyperus iria; 600 g/ha, from Hunan): 5 (Level 5: the growth inhibition rate is greater than 85%)
Activity level (growth inhibition rate) Digitaria sanguinalis (Digitaria sanguinalis): 5 (Level 5: the growth inhibition rate is greater than 85%)
Activity level (growth inhibition rate) Echinochloa crusgalli (Echinochloa crusgalli): 5 (Level 5: the growth inhibition rate is greater than 85%)
Echinochloa crusgalli, activity level (growth inhibition rate) (Echinochloa crusgalli; 600 g/ha, from Hunan): 5 (Level 5: the growth inhibition rate is greater than 85%)
Activity level (growth inhibition rate) Galium spurium (Galium spurium): 5 (Level 5: the growth inhibition rate is greater than 85%)
Indica rice, activity level (growth inhibition rate) (Indica rice; 600 g/ha): 0 (Level 0: the growth inhibition rate is less than 5%)
Japonica rice, activity level (growth inhibition rate) (Japonica rice; 600 g/ha): 0 (Level 0: the growth inhibition rate is less than 5%)
Activity level (growth inhibition rate) Monochoria Vaginalis (Monochoria vaginalis [1]): 5 (Level 5: the growth inhibition rate is greater than 85%)
Rice, safety level (rice (japonica rice)): 0 (Level 0: the growth inhibition rate is less than 5%)
Monochoria Vaginalis, activity level (Monochoria vaginalis [2]; 1000 g/ha): 5 (Level 5: the growth inhibition rate is greater than 85%)

Cc1c(OC(C)C(=O)OCc2ccccc2)nc(F)c(Cl)c1N (stereo not drawn) [Compound 20]
Activity level (growth inhibition rate) Abutilon theophrasti (Abutilon theophrasti): 5 (Level 5: the growth inhibition rate is greater than 85%)
Cyperus iria, activity level (growth inhibition rate) (Cyperus iria; 600 g/ha, from Hunan): 5 (Level 5: the growth inhibition rate is greater than 85%)
Activity level (growth inhibition rate) Digitaria sanguinalis (Digitaria sanguinalis): 5 (Level 5: the growth inhibition rate is greater than 85%)
Activity level (growth inhibition rate) Echinochloa crusgalli (Echinochloa crusgalli): 5 (Level 5: the growth inhibition rate is greater than 85%)
Echinochloa crusgalli, activity level (growth inhibition rate) (Echinochloa crusgalli; 600 g/ha, from Hunan): 5 (Level 5: the growth inhibition rate is greater than 85%)
Activity level (growth inhibition rate) Galium spurium (Galium spurium): 5 (Level 5: the growth inhibition rate is greater than 85%)
Indica rice, activity level (growth inhibition rate) (Indica rice; 600 g/ha): 0 (Level 0: the growth inhibition rate is less than 5%)
Japonica rice, activity level (growth inhibition rate) (Japonica rice; 600 g/ha): 0 (Level 0: the growth inhibition rate is less than 5%)
Activity level (growth inhibition rate) Monochoria Vaginalis (Monochoria vaginalis [1]): 5 (Level 5: the growth inhibition rate is greater than 85%)
Rice, safety level (rice (japonica rice)): 0 (Level 0: the growth inhibition rate is less than 5%)
Monochoria Vaginalis, activity level (Monochoria vaginalis [2]; 1000 g/ha): 5 (Level 5: the growth inhibition rate is greater than 85%)

CC(Oc1nc(F)c(Cl)c(N)c1Cl)C(=O)SCc1ccccc1 (stereo not drawn) [Compound 67]
Activity level (growth inhibition rate) Abutilon theophrasti (Abutilon theophrasti): 5 (Level 5: the growth inhibition rate is greater than 85%)
Cyperus iria, activity level (growth inhibition rate) (Cyperus iria; 600 g/ha, from Hunan): 5 (Level 5: the growth inhibition rate is greater than 85%)
Activity level (growth inhibition rate) Digitaria sanguinalis (Digitaria sanguinalis): 5 (Level 5: the growth inhibition rate is greater than 85%)
Activity level (growth inhibition rate) Echinochloa crusgalli (Echinochloa crusgalli): 5 (Level 5: the growth inhibition rate is greater than 85%)
Echinochloa crusgalli, activity level (growth inhibition rate) (Echinochloa crusgalli; 600 g/ha, from Hunan): 5 (Level 5: the growth inhibition rate is greater than 85%)
Activity level (growth inhibition rate) Galium spurium (Galium spurium): 5 (Level 5: the growth inhibition rate is greater than 85%)
Indica rice, activity level (growth inhibition rate) (Indica rice; 600 g/ha): 0 (Level 0: the growth inhibition rate is less than 5%)
Japonica rice, activity level (growth inhibition rate) (Japonica rice; 600 g/ha): 0 (Level 0: the growth inhibition rate is less than 5%)
Activity level (growth inhibition rate) Monochoria Vaginalis (Monochoria vaginalis [1]): 5 (Level 5: the growth inhibition rate is greater than 85%)
Rice, safety level (rice (japonica rice)): 0 (Level 0: the growth inhibition rate is less than 5%)
Monochoria Vaginalis, activity level (Monochoria vaginalis [2]; 1000 g/ha): 5 (Level 5: the growth inhibition rate is greater than 85%)

CC(Oc1nc(F)c(Cl)c(N)c1Cl)C(=O)SCc1cccc(Cl)c1 (stereo not drawn) [Compound 76]
Activity level (growth inhibition rate) Abutilon theophrasti (Abutilon theophrasti): 5 (Level 5: the growth inhibition rate is greater than 85%)
Cyperus iria, activity level (growth inhibition rate) (Cyperus iria; 600 g/ha, from Hunan): 5 (Level 5: the growth inhibition rate is greater than 85%)
Activity level (growth inhibition rate) Digitaria sanguinalis (Digitaria sanguinalis): 5 (Level 5: the growth inhibition rate is greater than 85%)
Activity level (growth inhibition rate) Echinochloa crusgalli (Echinochloa crusgalli): 5 (Level 5: the growth inhibition rate is greater than 85%)
Echinochloa crusgalli, activity level (growth inhibition rate) (Echinochloa crusgalli; 600 g/ha, from Hunan): 5 (Level 5: the growth inhibition rate is greater than 85%)
Activity level (growth inhibition rate) Galium spurium (Galium spurium): 5 (Level 5: the growth inhibition rate is greater than 85%)
Indica rice, activity level (growth inhibition rate) (Indica rice; 600 g/ha): 0 (Level 0: the growth inhibition rate is less than 5%)
Japonica rice, activity level (growth inhibition rate) (Japonica rice; 600 g/ha): 0 (Level 0: the growth inhibition rate is less than 5%)
Activity level (growth inhibition rate) Monochoria Vaginalis (Monochoria vaginalis [1]): 5 (Level 5: the growth inhibition rate is greater than 85%)
Rice, safety level (rice (japonica rice)): 0 (Level 0: the growth inhibition rate is less than 5%)
Monochoria Vaginalis, activity level (Monochoria vaginalis [2]; 1000 g/ha): 5 (Level 5: the growth inhibition rate is greater than 85%)

CC(Oc1nc(F)c(Cl)c(N)c1Cl)C(=O)OCc1ccccn1 (stereo not drawn) [Compound 120]
Activity level (growth inhibition rate) Abutilon theophrasti (Abutilon theophrasti): 5 (Level 5: the growth inhibition rate is greater than 85%)
Cyperus iria, activity level (growth inhibition rate) (Cyperus iria; 600 g/ha, from Hunan): 5 (Level 5: the growth inhibition rate is greater than 85%)
Activity level (growth inhibition rate) Digitaria sanguinalis (Digitaria sanguinalis): 5 (Level 5: the growth inhibition rate is greater than 85%)
Activity level (growth inhibition rate) Echinochloa crusgalli (Echinochloa crusgalli): 5 (Level 5: the growth inhibition rate is greater than 85%)
Echinochloa crusgalli, activity level (growth inhibition rate) (Echinochloa crusgalli; 600 g/ha, from Hunan): 5 (Level 5: the growth inhibition rate is greater than 85%)
Activity level (growth inhibition rate) Galium spurium (Galium spurium): 5 (Level 5: the growth inhibition rate is greater than 85%)
Indica rice, activity level (growth inhibition rate) (Indica rice; 600 g/ha): 0 (Level 0: the growth inhibition rate is less than 5%)
Japonica rice, activity level (growth inhibition rate) (Japonica rice; 600 g/ha): 0 (Level 0: the growth inhibition rate is less than 5%)
Activity level (growth inhibition rate) Monochoria Vaginalis (Monochoria vaginalis [1]): 5 (Level 5: the growth inhibition rate is greater than 85%)
Rice, safety level (rice (japonica rice)): 0 (Level 0: the growth inhibition rate is less than 5%)
Monochoria Vaginalis, activity level (Monochoria vaginalis [2]; 1000 g/ha): 5 (Level 5: the growth inhibition rate is greater than 85%)

CC(Oc1nc(Cl)c(Cl)c(N)c1Cl)C(=O)OCc1ccccc1 (stereo not drawn) [Compound 2]
Activity level (growth inhibition rate) Abutilon theophrasti (Abutilon theophrasti): 5 (Level 5: the growth inhibition rate is greater than 85%)
Activity level (growth inhibition rate) Digitaria sanguinalis (Digitaria sanguinalis): 5 (Level 5: the growth inhibition rate is greater than 85%)
Activity level (growth inhibition rate) Echinochloa crusgalli (Echinochloa crusgalli): 5 (Level 5: the growth inhibition rate is greater than 85%)
Activity level (growth inhibition rate) Galium spurium (Galium spurium): 5 (Level 5: the growth inhibition rate is greater than 85%)
Activity level (growth inhibition rate) Monochoria Vaginalis (Monochoria vaginalis [1]): 5 (Level 5: the growth inhibition rate is greater than 85%)
Soybean, injury level by spray drift (Soybean): 0 (Level 0: the growth inhibition rate is less than 5%)

COc1cnc(OC)n2nc(NS(=O)(=O)c3c(OCC(F)F)cccc3C(F)(F)F)nc12 [Penoxsulam, reference compound]
Monochoria Vaginalis, activity level (Monochoria vaginalis [2]; 50 g/ha): 1 (Level 1: the growth inhibition rate is equal to or greater than 5% and less than 20%)

COc1cc(OC)nc(Oc2cccc(Oc3nc(OC)cc(OC)n3)c2C(=O)O)n1 [Bispyribac-sodium, reference compound]
Cyperus iria, activity level (growth inhibition rate) (Cyperus iria; 100 g/ha): 2 (Level 2: the growth inhibition rate is equal to or greater than 20% and less than 40%)
Echinochloa crusgalli, activity level (growth inhibition rate) (Echinochloa crusgalli; 100 g/ha): 1 (Level 1: the growth inhibition rate is equal to or greater than 5% and less than 20%)
Indica rice, activity level (growth inhibition rate) (Indica rice; 100 g/ha): 2 (Level 2: the growth inhibition rate is equal to or greater than 20% and less than 40%)
Japonica rice, activity level (growth inhibition rate) (Japonica rice; 100 g/ha): 4 (Level 4: the growth inhibition rate is equal to or greater than 60% and less than 85%)
